From patent US20250025495A1, “Diagnosis and Treatment of Metabolic Syndrome with Magnesium Compositions” (priority 2023, published 2025)

Experiments:
[1] = burn patients, intravenous; cited from earlier work
[2] = gut dysbiosis induced with lectin-containing raw red kidney beans (RRKB); assay type: in vivo; settings: by inducing heat shock factor 70
[3] = tested on: sulfate reducing bacteria (SRB); assay: SRB growth and hydrogen sulfide production with MgO; assay type: cell-based
Method: Total counts were obtained and represented as cells per ml. To account for the heavy right skew of the response variable, the analysis was conducted using a shifted log-transformation of the data and 90% confidence intervals were constructed using Cox's method. […] 90% confidence intervals were constructed using a parametric Bootstrap procedure based on a zero-inflated log-normal model where the parameters were estimated using maximum likelihood. The relationship between MgO dose level and the response (SRB Growth and H2S Concentration) was assessed with an F test based on a simple linear model. Data is presented as Mean±SEM. In this second in-vitro experiment, bacteria was grown with varying doses of MgO (0.5-2.0 mg/ml) in liquid media at 37° for 24 hours (n=3). Total counts were obtained and represented as cells per ml (FIG. 2A). To account for the heavy right skew of the response variable, the analysis was conducted using a shifted log-transformation of the data and 90% confidence intervals were constructed using Cox's method. Hydrogen sulfide production of SRB grown for 24 hours with varying concentrations of MgO as represented as parts per billion (ppb) (FIG. 2B). […] The relationship between MgO dose level and the response (SRB Growth and H2S Concentration) was assessed with an F test based on a simple linear model Data is presented as Mean±SEM.

## NC(=O)CC[C@H](N)C(=O)O [glutamine]
[1]
  endotoxemia and increased intestinal permeability: reversed
[2]
  reversal of leaky gut and microbial translocation to the liver: able to reverse these effects

## [Mg] [magnesium (Mg), magnesium]
[3]
  protection of the intestinal barrier by suppressing SRB and blocking production of hydrogen sulfide: effective in protecting the intestinal barrier

## [O]=[Mg] [magnesium oxide]
[3]
  reversal of SRB effects (increased intestinal permeability, SRB proliferation, hydrogen sulfide production): could be reversed
